Assay [1] addresses T1, Prostaglandin G/H synthase 1 (Ovis aries, UniProt P05979).
T1 sequence (P05979 whole entry): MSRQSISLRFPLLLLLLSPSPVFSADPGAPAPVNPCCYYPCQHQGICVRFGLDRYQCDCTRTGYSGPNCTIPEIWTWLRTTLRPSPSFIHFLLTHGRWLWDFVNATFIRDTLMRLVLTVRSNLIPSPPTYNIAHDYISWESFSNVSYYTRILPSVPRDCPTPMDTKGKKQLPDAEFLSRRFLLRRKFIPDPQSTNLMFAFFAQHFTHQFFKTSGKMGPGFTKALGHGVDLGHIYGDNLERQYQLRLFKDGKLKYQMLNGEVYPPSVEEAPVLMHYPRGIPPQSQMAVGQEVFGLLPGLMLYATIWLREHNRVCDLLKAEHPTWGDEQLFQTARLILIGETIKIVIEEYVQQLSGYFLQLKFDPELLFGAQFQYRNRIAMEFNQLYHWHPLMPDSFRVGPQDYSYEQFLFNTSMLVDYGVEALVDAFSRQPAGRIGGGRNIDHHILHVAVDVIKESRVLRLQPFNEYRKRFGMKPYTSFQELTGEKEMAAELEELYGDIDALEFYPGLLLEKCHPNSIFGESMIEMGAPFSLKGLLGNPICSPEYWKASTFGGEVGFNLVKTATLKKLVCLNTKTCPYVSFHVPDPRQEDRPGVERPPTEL
Put plainly: Inhibition of ovine COX1 using arachidonic acid as substrate preincubated for 10 mins followed by substrate addition measured after 5 mins by ELISA. Background: ELISA stands for enzyme-linked immunosorbent assay.

The species entered for another assay is Ovis aries. Put plainly: Selectivity ratio of compound effect for inhibition of ovine COX2 to compound effect for inhibition of ovine COX1.
The target of assay [2] is T2, Prostaglandin G/H synthase 1 (Ovis aries) (UniProt P05979).
T2 sequence (whole entry): T1 sequence (P05979 whole entry)
Put plainly: Inhibition of ovine COX1 at 5 uM using arachidonic acid as substrate preincubated for 10 mins followed by substrate addition measured after 5 mins by ELISA relative to control.

The test system of a further assay is Rattus norvegicus. Nature of the assay: Anti-inflammatory activity in Sprague-Dawley rat assessed as inhibition of carrageenan-induced edema in hind paw administered ip measured after 4 to 6 hrs relative to control. The assay is classed as functional. In general terms: In the carrageenan paw model, swelling and tenderness develop within hours.

Each structure is given as a SMILES string.

In general, IC50 refers to the concentration at which inhibition is half-maximal. Read a low IC50 as greater potency in that assay. As usually defined, the inhibition is the percentage by which the read-out fell short of the control. Low readings indicate a response near the control, high ones a response far below the control. On to `CC1=NN(c2ccccc2)C(=O)C1C(Nc1c(C)n(C)n(-c2ccccc2)c1=O)c1c(C)n(C)n(-c2ccccc2)c1=O` (stereo not given), for which the half-inhibitory concentration (IC50) in assay [1] was above 5 µM. The Selectivity ratio in the assay listed under Ovis aries came out at 1.01. Besides, the inhibition in assay [2] is 58.8%. Moreover, the “inhibition (INH)” value in the assay on Rattus norvegicus was determined as 39.4%.

The molecule `CC1=NN(c2ccccc2)C(=O)C1C(c1ccc2c(c1)OCO2)N1CCN(C(c2ccc3c(c2)OCO3)C2C(=O)N(c3ccccc3)N=C2C)CC1` (stereo not given) registered a 50% inhibitory concentration (IC50) in assay [1] above 5 µM. In addition, the Selectivity ratio in the assay listed under Ovis aries is 1.2. The molecule further displayed an inhibition in assay [2] of 42.9%. Besides, in the assay on Rattus norvegicus, the “inhibition (INH)” value was found to be 21.1%.

`CC1=NN(c2ccccc2)C(=O)/C1=C\c1ccc2c(c1)OCO2`: the IC50 in assay [1] stood at 22.2 µM. Besides, in the assay listed under Ovis aries, the Selectivity ratio came out at 0.67. The inhibition in assay [2] was found to be 25%. Moreover, the “inhibition (INH)” value in the assay on Rattus norvegicus came to 20.3%.

`Cc1c(CN2CCC(CCCC3CCN(Cc4c(C)n(C)n(-c5ccccc5)c4=O)CC3)CC2)c(=O)n(-c2ccccc2)n1C` yielded an IC50 in assay [1] of 1.23 µM. The Selectivity ratio in the assay listed under Ovis aries is 0.78. Moreover, in assay [2], the inhibition came to 88.5%. For the same molecule, in the assay with Rattus norvegicus, the “inhibition (INH)” value came out at 85.4%.

In turn, `CC1=NN(c2ccccc2)C(=O)C1C(Nc1c(C)n(C)n(-c2ccccc2)c1=O)c1ccc2c(c1)OCO2` (stereo not given) yielded an IC50 in assay [1] of 2.52 µM. In addition, the Selectivity ratio in the assay listed under Ovis aries is 0.82. In assay [2], this molecule registered an inhibition of 84.2%. In addition, in the assay on Rattus norvegicus, the “inhibition (INH)” value turned out to be 48.3%.

In the case of `Cc1c(CN2CCN(CCO)CC2)c(=O)n(-c2ccccc2)n1C`, the IC50 in assay [1] was above 5 µM. In the assay filed under Ovis aries, the Selectivity ratio was found to be 1.05. In assay [2], this molecule had an inhibition of 73.4%. In the assay on Rattus norvegicus, the “inhibition (INH)” value turned out to be 48.2%.

Regarding `CC1=NN(c2ccccc2)C(=O)C1C(c1c(C)c(=O)n(-c2ccccc2)n1C)N1CCN(C(c2c(C)c(=O)n(-c3ccccc3)n2C)C2C(=O)N(c3ccccc3)N=C2C)CC1` (stereo not given), the IC50 in assay [1] is 1.16 µM. In addition, in the assay filed under Ovis aries, the Selectivity ratio is 0.87. The inhibition in assay [2] is 87.4%. For the same molecule, the “inhibition (INH)” value in the assay on Rattus norvegicus turned out to be 49.5%.

In the case of `Cc1ccc(-c2cc(C(F)(F)F)nn2-c2ccc(S(N)(=O)=O)cc2)cc1` [CELECOXIB], the “inhibition (INH)” value in the assay with Rattus norvegicus amounted to 89%.

`CC1=NN(c2ccccc2)C(=O)C1C(c1c(C)n(C)n(-c2ccccc2)c1=O)N1CCCCC1` (stereo not given): the IC50 in assay [1] was found to be 1.33 µM. The Selectivity ratio in the assay filed under Ovis aries was 0.95. The molecule further had an inhibition in assay [2] of 78%. Moreover, in the assay on Rattus norvegicus, the “inhibition (INH)” value is listed as 40.5%.

`Cc1c(C(CCCC(c2c(C)n(C)n(-c3ccccc3)c2=O)c2c(C)n(C)n(-c3ccccc3)c2=O)c2c(C)n(-c3ccccc3)n(C)c2=O)c(=O)n(-c2ccccc2)n1C` (stereo not given) gave an IC50 in assay [1] of 1.46 µM. The Selectivity ratio in the assay filed under Ovis aries was determined as 0.48. In assay [2], this molecule yielded an inhibition of 81.3%. The “inhibition (INH)” value in the assay with Rattus norvegicus amounted to 75%.

Take `Cc1nn(-c2ccccc2)c(O)c1C(c1c(-c2ccccc2)[nH]c2ccccc12)c1c(C)c(=O)n(-c2ccccc2)n1C` (stereo not given): in assay [1], the IC50 was above 5 µM. Moreover, the Selectivity ratio in the assay filed under Ovis aries turned out to be 0.79. The molecule also had an inhibition in assay [2] of 69.1%. Moreover, the “inhibition (INH)” value in the assay with Rattus norvegicus came out at 35.9%.

`CC1=NN(c2ccccc2)C(=O)/C1=C\c1c(C)n(C)n(-c2ccccc2)c1=O` gave a half-inhibitory concentration (IC50) in assay [1] above 5 µM. Further, in the assay listed under Ovis aries, the Selectivity ratio amounted to 0.87. Also, in assay [2], the inhibition was 87%. Also, the “inhibition (INH)” value in the assay with Rattus norvegicus turned out to be 49.1%.

Values taken from ChEMBL document CHEMBL4184271, “Design, synthesis, anti-inflammatory activity and molecular docking of potential novel antipyrine and pyrazolone analogs as cyclooxygenase enzyme (COX) inhibitors” (Bioorg Med Chem Lett, 2018).
